Values quoted from earlier work, collected in patent publication US20260272607A1, “METHOD OF MARKING LESIONS” (Cook Medical Technologies LLC, priority 2023, published 2026).

Test system: lung nodules
Conditions: ICG dye marking without use of a coil; prior experience

SMILES: CC1(C)C(/C=C/C=C/C=C/C=C2\N(CCCCS(=O)(=O)O)c3ccc4ccccc4c3C2(C)C)=[N+](CCCCS(=O)(=O)[O-])c2ccc3ccccc3c21 [ICG dye, indocyanine green]
- persistence of dye effect after ICG dye marking without a coil: fade away over several hours
